Test results from ChEMBL document CHEMBL1201861, “Genomics of Drug Sensitity in Cancer screening data, Wellcome Trust Sanger Institute”.

Tests used:
Assay in all cases: cells
COR-L88 = assay type: functional, cell-based; details: Homo sapiens
Description: SANGER: Inhibition of human COR-L88 cell growth in a cell viability assay.

CTB-1 = assay type: functional, cell-based; details: Homo sapiens
Description: SANGER: Inhibition of human CTB-1 cell growth in a cell viability assay.

CTV-1 = assay type: functional, cell-based; details: Homo sapiens
Description: SANGER: Inhibition of human CTV-1 cell growth in a cell viability assay.

CaR-1 = assay type: functional, cell-based, Homo sapiens; details: Homo sapiens, CaR-1
Description: SANGER: Inhibition of human CaR-1 cell growth in a cell viability assay.

ChaGo-K-1 = assay type: functional, cell-based; details: Homo sapiens
Description: SANGER: Inhibition of human ChaGo-K-1 cell growth in a cell viability assay.

EGI-1 = assay type: functional, cell-based, Homo sapiens; details: Homo sapiens, EGI-1
Description: SANGER: Inhibition of human EGI-1 cell growth in a cell viability assay.

G-401 = assay type: functional, cell-based, Homo sapiens; details: Homo sapiens, G-401
Description: SANGER: Inhibition of human G-401 cell growth in a cell viability assay.

HCC1806 = assay type: functional, cell-based, Homo sapiens; details: Homo sapiens, HCC1806
Description: SANGER: Inhibition of human HCC1806 cell growth in a cell viability assay.

HCC 2998 = assay type: functional, cell-based, Homo sapiens; details: Homo sapiens, HCC 2998
Description: SANGER: Inhibition of human HCC2998 cell growth in a cell viability assay.

HT1197 = assay type: functional, cell-based, Homo sapiens, HT-1197; details: Homo sapiens, HT1197
Description: SANGER: Inhibition of human HT-1197 cell growth in a cell viability assay.

HT-1376 = assay type: functional, cell-based, Homo sapiens; details: Homo sapiens, HT-1376
Description: SANGER: Inhibition of human HT-1376 cell growth in a cell viability assay.

HuCCT-1 = assay type: functional, cell-based, Homo sapiens, HuCCT1; details: Homo sapiens, HuCCT-1
Description: SANGER: Inhibition of human HuCCT1 cell growth in a cell viability assay.

Huh-7 = assay type: functional, cell-based, Homo sapiens; details: Homo sapiens, Huh-7
Description: SANGER: Inhibition of human HuH-7 cell growth in a cell viability assay.

KE-37 = assay type: functional, cell-based; details: Homo sapiens
Description: SANGER: Inhibition of human KE-37 cell growth in a cell viability assay.

KGN = assay type: functional, cell-based, Homo sapiens; details: Homo sapiens, KGN
Description: SANGER: Inhibition of human KGN cell growth in a cell viability assay.

KM12 = assay type: functional, cell-based, Homo sapiens; details: Homo sapiens, KM12
Description: SANGER: Inhibition of human KM12 cell growth in a cell viability assay.

KNS-81-FD = assay type: functional, cell-based, Homo sapiens; details: Homo sapiens, KNS-81-FD
Description: SANGER: Inhibition of human KNS-81-FD cell growth in a cell viability assay.

KYSE-140 = assay type: functional, cell-based, Homo sapiens; details: Homo sapiens, KYSE-140
Description: SANGER: Inhibition of human KYSE-140 cell growth in a cell viability assay.

LCLC-103H cell line = assay type: functional, cell-based, Homo sapiens; details: Homo sapiens, LCLC-103H
Description: SANGER: Inhibition of human LCLC-103H cell growth in a cell viability assay.

LU-99A = assay type: functional, cell-based, Homo sapiens; details: Homo sapiens, LU-99A
Description: SANGER: Inhibition of human LU-99A cell growth in a cell viability assay.

MC116 = assay type: functional, cell-based; details: Homo sapiens
Description: SANGER: Inhibition of human MC116 cell growth in a cell viability assay.

MDA-MB-415 = assay type: functional, cell-based; details: Homo sapiens
NB12 = assay type: functional, cell-based, Homo sapiens; details: Homo sapiens, NB12
Description: SANGER: Inhibition of human NB12 cell growth in a cell viability assay.

NB17 = assay type: functional, cell-based; details: Homo sapiens
Description: SANGER: Inhibition of human NB17 cell growth in a cell viability assay.

NB69 = assay type: functional, cell-based, Homo sapiens; details: Homo sapiens, NB69
Description: SANGER: Inhibition of human NB69 cell growth in a cell viability assay.

NCI-H1563 = assay type: functional, cell-based, Homo sapiens; details: Homo sapiens, NCI-H1563
Description: SANGER: Inhibition of human NCI-H1563 cell growth in a cell viability assay.

NCI-H1693 = assay type: functional, cell-based, Homo sapiens; details: Homo sapiens, NCI-H1693
Description: SANGER: Inhibition of human NCI-H1693 cell growth in a cell viability assay.

NCI-H1755 = assay type: functional, cell-based, Homo sapiens; details: Homo sapiens, NCI-H1755
Description: SANGER: Inhibition of human NCI-H1755 cell growth in a cell viability assay.

NCI-H1993 = assay type: functional, cell-based, Homo sapiens; details: Homo sapiens, NCI-H1993
Description: SANGER: Inhibition of human NCI-H1993 cell growth in a cell viability assay.

NCI-H23 = assay type: functional, cell-based, Homo sapiens; details: Homo sapiens, NCI-H23
Description: SANGER: Inhibition of human NCI-H23 cell growth in a cell viability assay.

NCI-H2342 = assay type: functional, cell-based; details: Homo sapiens
Description: SANGER: Inhibition of human NCI-H2342 cell growth in a cell viability assay.

NCI-H650 = assay type: functional, cell-based, Homo sapiens; details: Homo sapiens, NCI-H650
Description: SANGER: Inhibition of human NCI-H650 cell growth in a cell viability assay.

OAW-28 = assay type: functional, cell-based, Homo sapiens; details: Homo sapiens, OAW-28
Description: SANGER: Inhibition of human OAW-28 cell growth in a cell viability assay.

OAW-42 = assay type: functional, cell-based, Homo sapiens; details: Homo sapiens, OAW-42
Description: SANGER: Inhibition of human OAW-42 cell growth in a cell viability assay.

PSN1 = assay type: functional, cell-based, Homo sapiens; details: Homo sapiens, PSN1
Description: SANGER: Inhibition of human PSN1 cell growth in a cell viability assay.

SBC-5 = assay type: functional, cell-based, Homo sapiens; details: Homo sapiens, SBC-5
Description: SANGER: Inhibition of human SBC-5 cell growth in a cell viability assay.

SCC-15 = assay type: functional, cell-based, Homo sapiens; details: Homo sapiens, SCC-15
Description: SANGER: Inhibition of human SCC-15 cell growth in a cell viability assay.

SHP77 = assay type: functional, cell-based, Homo sapiens, SHP-77; details: Homo sapiens, SHP77
Description: SANGER: Inhibition of human SHP-77 cell growth in a cell viability assay.

SJSA-1 = assay type: functional, cell-based, Homo sapiens; details: Homo sapiens, SJSA-1
Description: SANGER: Inhibition of human SJSA-1 cell growth in a cell viability assay.

8505C = assay type: functional, cell-based, Homo sapiens; details: Homo sapiens, 8505C
Description: SANGER: Inhibition of human 8505C cell growth in a cell viability assay.

A101D = assay type: functional, cell-based, Homo sapiens; details: Homo sapiens, A101D
Description: SANGER: Inhibition of human A101D cell growth in a cell viability assay.

A 172 = assay type: functional, cell-based, Homo sapiens; details: Homo sapiens, A 172
Description: SANGER: Inhibition of human A172 cell growth in a cell viability assay.

A498 = assay type: functional, cell-based, Homo sapiens; details: Homo sapiens, A498
Description: SANGER: Inhibition of human A498 cell growth in a cell viability assay.

A673 = assay type: functional, cell-based, Homo sapiens; details: Homo sapiens, A673
Description: SANGER: Inhibition of human A673 cell growth in a cell viability assay.

ABC-1 = assay type: functional, cell-based, Homo sapiens; details: Homo sapiens, ABC-1
Description: SANGER: Inhibition of human ABC-1 cell growth in a cell viability assay.

BV-173 = assay type: functional, cell-based; details: Homo sapiens
Description: SANGER: Inhibition of human BV-173 cell growth in a cell viability assay.

C8166 = assay type: functional, cell-based; details: Homo sapiens
Description: SANGER: Inhibition of human C8166 cell growth in a cell viability assay.

CAL-33 = assay type: functional, cell-based, Homo sapiens; details: Homo sapiens, CAL-33
Description: SANGER: Inhibition of human CAL-33 cell growth in a cell viability assay.

CAL-72 = assay type: functional, cell-based, Homo sapiens; details: Homo sapiens, CAL-72
Description: SANGER: Inhibition of human CAL-72 cell growth in a cell viability assay.

WM-115 = assay type: functional, cell-based, Homo sapiens; details: Homo sapiens, WM-115
Description: SANGER: Inhibition of human WM-115 cell growth in a cell viability assay.

COLO-668 = assay type: functional, cell-based, Homo sapiens; details: Homo sapiens, COLO-668
Description: SANGER: Inhibition of human COLO-668 cell growth in a cell viability assay.

## Nc1ccn([C@@H]2O[C@H](CO)[C@@H](O)[C@@H]2O)c(=O)n1 [CYTARABINE]
COR-L88
  IC50: > 2 µM
CTB-1
  IC50: 0.0344 µM
CTV-1
  IC50: 0.0847 µM
CaR-1
  IC50: > 2 µM
ChaGo-K-1
  IC50: > 2 µM
EGI-1
  IC50: 1.11 µM
G-401
  IC50: 0.758 µM
HCC1806
  IC50: 0.191 µM
HCC 2998
  IC50: > 2 µM
HT1197
  IC50: > 2 µM
HT-1376
  IC50: 1.68 µM
HuCCT-1
  IC50: > 2 µM
Huh-7
  IC50: > 2 µM
KE-37
  IC50: 0.111 µM
KGN
  IC50: > 2 µM
KM12
  IC50: > 2 µM
KNS-81-FD
  IC50: > 2 µM
KYSE-140
  IC50: > 2 µM
LCLC-103H cell line
  IC50: > 2 µM
LU-99A
  IC50: 0.266 µM
MC116
  IC50: 1.28 µM
MDA-MB-415
  IC50: > 2 µM
NB12
  IC50: > 2 µM
NB17
  IC50: > 2 µM
NB69
  IC50: 0.0795 µM
NCI-H1563
  IC50: > 2 µM
NCI-H1693
  IC50: > 2 µM
NCI-H1755
  IC50: > 2 µM
NCI-H1993
  IC50: > 2 µM
NCI-H23
  IC50: 1.2 µM
NCI-H2342
  IC50: > 2 µM
NCI-H650
  IC50: > 2 µM
OAW-28
  IC50: > 2 µM
OAW-42
  IC50: 1.25 µM
PSN1
  IC50: 0.193 µM
SBC-5
  IC50: > 2 µM
SCC-15
  IC50: 1.08 µM
SHP77
  IC50: > 2 µM
SJSA-1
  IC50: 0.235 µM
8505C
  IC50: > 2 µM
A101D
  IC50: > 2 µM
A 172
  IC50: > 2 µM
A498
  IC50: > 2 µM
A673
  IC50: 0.224 µM
ABC-1
  IC50: 1.52 µM
BV-173
  IC50: 0.516 µM
C8166
  IC50: > 2 µM
CAL-33
  IC50: 1.18 µM
CAL-72
  IC50: > 2 µM
WM-115
  IC50: > 2 µM
COLO-668
  IC50: 0.809 µM

## CC(=O)O[C@@]12CO[C@@H]1C[C@H](O)[C@@]1(C)C(=O)[C@H](O)C3=C(C)[C@@H](OC(=O)[C@H](O)[C@@H](NC(=O)OC(C)(C)C)c4ccccc4)C[C@@](O)([C@@H](OC(=O)c4ccccc4)[C@H]21)C3(C)C [DOCETAXEL]
COR-L88
  IC50: > 0.01 µM
CTB-1
  IC50: 0.00192 µM
CTV-1
  IC50: 0.00337 µM
CaR-1
  IC50: 0.00327 µM
ChaGo-K-1
  IC50: 0.00988 µM
EGI-1
  IC50: 0.00362 µM
G-401
  IC50: 0.00127 µM
HCC1806
  IC50: 0.00118 µM
HCC 2998
  IC50: 0.00408 µM
HT1197
  IC50: > 0.01 µM
HT-1376
  IC50: > 0.01 µM
HuCCT-1
  IC50: 0.00568 µM
Huh-7
  IC50: > 0.01 µM
KE-37
  IC50: > 0.01 µM
KGN
  IC50: 0.00247 µM
KM12
  IC50: 0.00408 µM
KNS-81-FD
  IC50: 0.00399 µM
KYSE-140
  IC50: 0.000933 µM
LCLC-103H cell line
  IC50: 0.00293 µM
LU-99A
  IC50: > 0.01 µM
MC116
  IC50: > 0.01 µM
MDA-MB-415
  IC50: 0.00274 µM
NB12
  IC50: > 0.01 µM
NB17
  IC50: 0.00189 µM
NB69
  IC50: 0.00629 µM
NCI-H1563
  IC50: > 0.01 µM
NCI-H1693
  IC50: > 0.01 µM
NCI-H1755
  IC50: 0.00624 µM
NCI-H1993
  IC50: > 0.01 µM
NCI-H23
  IC50: 0.00364 µM
NCI-H2342
  IC50: > 0.01 µM
NCI-H650
  IC50: 0.00225 µM
OAW-28
  IC50: > 0.01 µM
OAW-42
  IC50: > 0.01 µM
PSN1
  IC50: 0.000581 µM
SBC-5
  IC50: 0.00187 µM
SCC-15
  IC50: 0.00689 µM
SHP77
  IC50: > 0.01 µM
SJSA-1
  IC50: 0.000615 µM
8505C
  IC50: 0.000854 µM
A101D
  IC50: > 0.01 µM
A 172
  IC50: 0.00163 µM
A498
  IC50: 0.000278 µM
A673
  IC50: 0.00235 µM
ABC-1
  IC50: > 0.01 µM
BV-173
  IC50: 0.0053 µM
C8166
  IC50: > 0.01 µM
CAL-33
  IC50: 0.00104 µM
CAL-72
  IC50: > 0.01 µM
WM-115
  IC50: 0.00627 µM
COLO-668
  IC50: > 0.01 µM
